Experimental data taken from US7498409B2, “Screening assay for TLR7, TLR8 and TLR9 agonists and antagonists” (Schering Corporation, priority 2005, dated 2009).

How the values were obtained:
wild-type TLR7 = target: T1, wild-type TLR7 (Homo sapiens, UniProt Q9NYK1); test: NFκB-luciferase reporter assay in transfected HEK 293 cells, wild-type TLR7; format: cell-based
T1 construct: expressed in transfected cells; host or cells: HEK 293
T1 sequence (Q9NYK1 27-1049): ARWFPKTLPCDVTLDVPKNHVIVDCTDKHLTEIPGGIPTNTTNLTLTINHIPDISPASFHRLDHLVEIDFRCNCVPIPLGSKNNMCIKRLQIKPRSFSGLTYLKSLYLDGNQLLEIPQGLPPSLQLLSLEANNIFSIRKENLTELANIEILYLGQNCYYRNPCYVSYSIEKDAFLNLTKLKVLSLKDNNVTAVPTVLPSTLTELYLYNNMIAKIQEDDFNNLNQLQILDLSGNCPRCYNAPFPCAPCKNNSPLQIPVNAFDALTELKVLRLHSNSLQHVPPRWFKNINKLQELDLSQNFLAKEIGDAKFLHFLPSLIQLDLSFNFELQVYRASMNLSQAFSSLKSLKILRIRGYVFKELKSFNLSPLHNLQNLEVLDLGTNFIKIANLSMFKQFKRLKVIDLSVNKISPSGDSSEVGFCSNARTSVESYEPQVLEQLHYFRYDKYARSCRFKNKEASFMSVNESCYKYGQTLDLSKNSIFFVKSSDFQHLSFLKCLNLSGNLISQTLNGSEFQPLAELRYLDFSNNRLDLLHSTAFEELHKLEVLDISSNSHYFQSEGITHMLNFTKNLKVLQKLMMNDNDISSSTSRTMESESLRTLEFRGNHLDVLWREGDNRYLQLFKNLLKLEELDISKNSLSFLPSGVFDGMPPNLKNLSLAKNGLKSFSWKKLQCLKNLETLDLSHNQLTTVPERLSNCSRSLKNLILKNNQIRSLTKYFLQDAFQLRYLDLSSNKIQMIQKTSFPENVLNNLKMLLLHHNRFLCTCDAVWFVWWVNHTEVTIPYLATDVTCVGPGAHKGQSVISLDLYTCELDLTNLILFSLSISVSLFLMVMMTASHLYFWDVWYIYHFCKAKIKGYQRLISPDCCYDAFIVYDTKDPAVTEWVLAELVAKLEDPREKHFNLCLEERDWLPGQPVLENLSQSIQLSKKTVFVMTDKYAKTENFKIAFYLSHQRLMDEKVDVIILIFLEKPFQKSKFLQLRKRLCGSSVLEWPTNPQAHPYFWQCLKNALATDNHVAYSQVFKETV
From the text: (§1) Wells without agonist served as negative controls.

[1] = target: T2, mutant TLR7 containing a deletion in the second LRR (Homo sapiens, UniProt Q9NYK1, DEL102-106); test: NFκB-luciferase reporter assay in transfected HEK 293 cells, mutant TLR7 (pCMVhuTLR7Δ2); format: cell-based; design: fold lower concentration sufficient for full activation of mutant TLR7 versus wild-type TLR7: dose or concentration left out as unconfirmed
T2 construct: expressed in transfected cells; host or cells: HEK 293
T2 sequence (Q9NYK1 with tags, fused parts or gaps DEL102-106): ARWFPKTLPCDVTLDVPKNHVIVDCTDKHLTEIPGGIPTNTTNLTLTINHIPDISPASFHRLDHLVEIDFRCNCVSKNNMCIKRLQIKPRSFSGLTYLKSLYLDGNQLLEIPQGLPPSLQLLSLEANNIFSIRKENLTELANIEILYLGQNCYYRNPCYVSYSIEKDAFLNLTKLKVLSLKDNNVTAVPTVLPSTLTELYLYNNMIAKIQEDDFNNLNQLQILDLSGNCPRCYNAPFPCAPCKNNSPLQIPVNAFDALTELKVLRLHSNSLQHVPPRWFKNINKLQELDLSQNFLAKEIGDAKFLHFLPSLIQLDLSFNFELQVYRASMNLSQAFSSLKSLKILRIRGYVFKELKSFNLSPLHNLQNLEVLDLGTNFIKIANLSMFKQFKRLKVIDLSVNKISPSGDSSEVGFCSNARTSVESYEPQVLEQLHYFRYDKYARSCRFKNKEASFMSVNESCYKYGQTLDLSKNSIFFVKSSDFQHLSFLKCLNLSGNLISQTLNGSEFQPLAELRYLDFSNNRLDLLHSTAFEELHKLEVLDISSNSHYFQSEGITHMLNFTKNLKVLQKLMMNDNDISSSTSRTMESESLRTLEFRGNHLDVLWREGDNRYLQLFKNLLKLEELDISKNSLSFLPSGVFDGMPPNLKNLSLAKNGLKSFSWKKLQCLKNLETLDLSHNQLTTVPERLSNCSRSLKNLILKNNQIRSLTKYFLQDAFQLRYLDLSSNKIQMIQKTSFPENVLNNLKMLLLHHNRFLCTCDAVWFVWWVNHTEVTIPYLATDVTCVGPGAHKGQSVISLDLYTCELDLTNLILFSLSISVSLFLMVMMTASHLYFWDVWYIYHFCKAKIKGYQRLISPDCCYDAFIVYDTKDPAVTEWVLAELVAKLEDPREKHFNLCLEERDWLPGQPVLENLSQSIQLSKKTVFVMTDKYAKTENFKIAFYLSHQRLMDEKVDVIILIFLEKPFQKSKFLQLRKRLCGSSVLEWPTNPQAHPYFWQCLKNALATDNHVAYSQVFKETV
From the text: (§2) ID NO: 11) and the antisense primer [NT] ID NO: 12). […] The mutation was confirmed by DNA sequencing. […] Wells without agonist served as negative controls.

[2] = tested on: mutant TLR7 containing a deletion in the second LRR; test: as above; format: cell-based, human; design: fold lower concentration sufficient for full activation of mutant TLR7 versus wild-type TLR7: dose or concentration left out as unconfirmed
From the text: as §2

wild-type TLR8 = target: T3, wild-type TLR8 (Homo sapiens, UniProt Q9NR97); test: NFκB-luciferase reporter assay in transfected HEK 293 cells, wild-type TLR8; format: cell-based
T3 construct: printed for the mutant only, inferred for the wild type (N); expressed in transfected cells; host or cells: HEK 293
T3 sequence (Q9NR97 1-1059 isoform Q9NR97-2): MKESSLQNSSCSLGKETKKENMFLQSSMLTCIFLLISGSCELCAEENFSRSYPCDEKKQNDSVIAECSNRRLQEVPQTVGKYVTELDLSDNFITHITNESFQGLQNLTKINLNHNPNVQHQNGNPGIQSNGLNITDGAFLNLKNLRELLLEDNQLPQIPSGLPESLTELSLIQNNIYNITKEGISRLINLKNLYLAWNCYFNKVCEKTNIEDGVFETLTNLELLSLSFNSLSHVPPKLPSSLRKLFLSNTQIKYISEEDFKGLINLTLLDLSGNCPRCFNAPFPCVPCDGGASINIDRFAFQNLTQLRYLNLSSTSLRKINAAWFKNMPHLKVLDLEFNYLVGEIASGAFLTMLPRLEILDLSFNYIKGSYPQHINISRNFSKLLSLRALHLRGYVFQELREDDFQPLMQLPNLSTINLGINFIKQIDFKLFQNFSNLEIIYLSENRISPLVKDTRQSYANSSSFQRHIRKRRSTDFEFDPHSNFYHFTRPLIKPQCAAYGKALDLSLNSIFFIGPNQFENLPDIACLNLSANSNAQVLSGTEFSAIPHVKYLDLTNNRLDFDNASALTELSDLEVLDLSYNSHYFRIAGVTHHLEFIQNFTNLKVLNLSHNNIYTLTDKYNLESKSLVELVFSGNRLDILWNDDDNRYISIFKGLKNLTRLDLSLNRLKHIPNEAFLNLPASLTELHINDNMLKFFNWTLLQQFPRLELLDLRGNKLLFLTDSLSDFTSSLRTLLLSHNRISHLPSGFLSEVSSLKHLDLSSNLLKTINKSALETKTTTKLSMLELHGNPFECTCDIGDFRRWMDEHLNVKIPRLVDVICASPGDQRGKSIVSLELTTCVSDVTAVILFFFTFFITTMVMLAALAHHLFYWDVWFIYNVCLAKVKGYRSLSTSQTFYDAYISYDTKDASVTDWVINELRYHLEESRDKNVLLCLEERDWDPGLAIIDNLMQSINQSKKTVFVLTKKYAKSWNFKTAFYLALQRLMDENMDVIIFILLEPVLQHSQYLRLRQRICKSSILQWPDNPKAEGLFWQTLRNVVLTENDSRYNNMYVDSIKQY
From the text: as §1

[3] = target: T4, mutant TLR8 containing a deletion in the second LRR (Homo sapiens, UniProt Q9NR97, DEL100-104); test: NFκB-luciferase reporter assay in transfected HEK 293 cells, mutant TLR8 (pCMVhuTLR8Δ2); format: cell-based; conditions: HEK 293, 5 h
T4 construct: expressed in transfected cells; host or cells: HEK 293
T4 sequence (Q9NR97 with tags, fused parts or gaps DEL100-104): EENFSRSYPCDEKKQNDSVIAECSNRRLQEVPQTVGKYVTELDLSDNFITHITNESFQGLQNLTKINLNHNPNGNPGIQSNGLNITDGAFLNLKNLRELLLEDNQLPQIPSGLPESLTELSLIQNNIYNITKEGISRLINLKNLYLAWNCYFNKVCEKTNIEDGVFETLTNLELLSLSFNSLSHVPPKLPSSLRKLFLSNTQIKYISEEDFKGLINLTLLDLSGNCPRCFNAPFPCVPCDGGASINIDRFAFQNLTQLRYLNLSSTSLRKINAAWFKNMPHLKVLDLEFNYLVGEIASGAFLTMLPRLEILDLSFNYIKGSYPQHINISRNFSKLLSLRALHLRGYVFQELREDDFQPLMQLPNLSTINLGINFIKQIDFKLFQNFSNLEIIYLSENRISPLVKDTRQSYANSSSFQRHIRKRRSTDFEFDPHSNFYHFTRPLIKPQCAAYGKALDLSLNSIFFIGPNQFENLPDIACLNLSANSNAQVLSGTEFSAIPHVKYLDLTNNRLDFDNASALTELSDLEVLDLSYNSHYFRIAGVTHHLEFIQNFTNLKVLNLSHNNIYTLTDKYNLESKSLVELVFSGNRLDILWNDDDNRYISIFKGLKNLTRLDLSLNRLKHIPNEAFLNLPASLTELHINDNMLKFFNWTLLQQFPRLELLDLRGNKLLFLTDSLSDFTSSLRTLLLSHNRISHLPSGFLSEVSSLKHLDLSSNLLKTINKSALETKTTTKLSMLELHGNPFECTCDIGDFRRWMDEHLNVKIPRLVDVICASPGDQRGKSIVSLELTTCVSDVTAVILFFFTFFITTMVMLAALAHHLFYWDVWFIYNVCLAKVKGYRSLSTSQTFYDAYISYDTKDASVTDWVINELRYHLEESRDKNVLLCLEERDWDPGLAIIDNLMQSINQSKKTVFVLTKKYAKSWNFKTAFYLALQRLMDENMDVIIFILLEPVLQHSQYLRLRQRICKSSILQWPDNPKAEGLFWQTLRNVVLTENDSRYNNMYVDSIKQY
From the text: The mutation was confirmed by DNA sequencing.
as §1

## CCOCc1nc2c(N)nc3ccccc3c2n1CC(C)(C)O [R848]
wild-type TLR7; 10 nM R848, HEK 293, 5 h
  activation of wild-type TLR7 (luciferase activity): did not result in significant activation
wild-type TLR7; HEK 293, NFκB-luciferase
  concentration giving close-to-maximum activation of wild-type TLR7: 1 µM
[1]; 10 nM R848, HEK 293, 5 h, vs medium alone
  induction of luciferase activity: 6 fold
[2]; compared with for wild-type TLR7
  fold lower concentration sufficient for full activation of mutant TLR7 versus wild-type TLR7: 10 fold
wild-type TLR8; HEK 293, NFκB-luciferase
  concentration required to achieve 5-fold induction of luciferase: at least 0.5 μM
[3]; 50 nm of R848
  induction of luciferase: ~10 fold

## O=c1ccn([C@@H]2O[C@H](CO)[C@@H](O)[C@H]2O)c(=O)[nH]1 [uridine]
wild-type TLR8; 4.5 mM uridine, HEK 293, 5 h
  activation of wild-type TLR8 (luciferase): 3 fold
[3]; 4.5 mM uridine
  activation of mutant TLR8 (luciferase): 15 fold

## C=CCn1c(=O)n([C@@H]2O[C@H](CO)[C@@H](O)[C@H]2O)c2nc(N)[nH]c(=O)c21 [loxoribine]
wild-type TLR7; HEK 293, NFκB-luciferase
  concentration at which wild-type TLR7 is activated: greater than 0.5 mM
[1]; same activation as wild-type TLR7 at >0.5 mM
  concentration achieving the same activation with mutant TLR7: 0.1 mM
[2]; 0.1 mM versus 0.5 mM
  fold lower concentration for same activation of mutant TLR7 versus wild-type TLR7: 5 fold
